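Growth conditions: 96-well plates. Treatment: test compound, 48 hours, 5 concentrations. Analysis: linear interpolation between bracketing concentrations; unreached endpoints set to highest concentration. GI50: concentration for 50% inhibition of growth.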 The source made the active and inactive calls. Cut-off read from the data, not from the text of the source: active = GI50 up to about 1.1 µM and inactive = higher.
Tests used:
Test in all cases: NCI anticancer screen, dose series, 48 h
786-0 = tested on: 786-0
DLD-1 = tested on: DLD-1
HCC 2998 = tested on: HCC 2998
HL-60 = tested on: HL-60
HOP-18 = tested on: HOP-18
KM12 = tested on: KM12
LOX IMVI = tested on: LOX IMVI
Malme-3M = tested on: Malme-3M
NCI-H226 = tested on: NCI-H226
NCI-H23 = tested on: NCI-H23
OVCAR-3 = tested on: OVCAR-3
SF-268 = tested on: SF-268
SF-295 = tested on: SF-295
SK-OV-3 = tested on: SK-OV-3
SR = tested on: SR
UACC-257 = tested on: UACC-257
Hs-578T = tested on: Hs-578T
MDA-MB-231 = tested on: MDA-MB-231
T47D = tested on: T47D
NCI/ADR-RES = tested on: NCI/ADR-RES

| SMILES | GI50 (786-0) | GI50 (DLD-1) | GI50 (HCC 2998) | GI50 (HL-60) | GI50 (HOP-18) | GI50 (KM12) | GI50 (LOX IMVI) | GI50 (Malme-3M) | GI50 (NCI-H226) | GI50 (NCI-H23) | GI50 (OVCAR-3) | GI50 (SF-268) | GI50 (SF-295) | GI50 (SK-OV-3) | GI50 (SR) | GI50 (UACC-257) | GI50 (Hs-578T) | GI50 (MDA-MB-231) | GI50 (T47D) | GI50 (NCI/ADR-RES) |
| --- | --- | --- | --- | --- | --- | --- | --- | --- | --- | --- | --- | --- | --- | --- | --- | --- | --- | --- | --- | --- |
| Cc1ccc(-c2cc(-c3ccccc3)c(C#N)c(=O)[nH]2)cc1 | > 100 µM (inactive) | > 100 µM (inactive) | > 100 µM (inactive) | > 100 µM (inactive) | > 100 µM (inactive) | > 100 µM (inactive) | > 100 µM (inactive) | > 100 µM (inactive) | > 100 µM (inactive) | > 100 µM (inactive) | > 100 µM (inactive) | > 100 µM (inactive) | > 100 µM (inactive) | > 100 µM (inactive) | > 100 µM (inactive) | > 100 µM (inactive) | – | – | – | – |
| CCCCCCCC(=O)O[C@H]1[C@H]2[C@@H](CC1(C)C)C(=O)[C@]13O[C@H]1C(=O)[C@]1(CO1)[C@]23C | 5.07 µM (inactive) | 1.89 µM (inactive) | 5.96 µM (inactive) | 0.124 µM (active) | 5.33 µM (inactive) | 7.73 µM (inactive) | 1.34 µM (inactive) | 3.29 µM (inactive) | 13.9 µM (inactive) | 3.46 µM (inactive) | 2.91 µM (inactive) | 6.01 µM (inactive) | 15.8 µM (inactive) | 34.3 µM (inactive) | 2.07 µM (inactive) | 2.85 µM (inactive) | 46 µM (inactive) | 25.5 µM (inactive) | 1.05 µM (active) | – |
| CC(C)c1cccc(=O)c(O)c1 | 3.4 µM (inactive) | 1.73 µM (inactive) | 9.44 µM (inactive) | 2.02 µM (inactive) | 1.4 µM (inactive) | 8.34 µM (inactive) | 2.42 µM (inactive) | 1.35 µM (inactive) | 6.32 µM (inactive) | 2.53 µM (inactive) | 1.24 µM (inactive) | 1.38 µM (inactive) | 3.39 µM (inactive) | 15.8 µM (inactive) | 0.959 µM (active) | 1.66 µM (inactive) | – | – | – | – |
| Cc1nc2c(C)c3c([nH]c4ccc(Cl)cc43)c(C)c2c(O)c1C | 3.99 µM (inactive) | 14.2 µM (inactive) | 6.46 µM (inactive) | 2.24 µM (inactive) | 33.8 µM (inactive) | 10.4 µM (inactive) | 4.06 µM (inactive) | 8.43 µM (inactive) | 4.82 µM (inactive) | 4.68 µM (inactive) | 7.94 µM (inactive) | 16.1 µM (inactive) | 5.89 µM (inactive) | 16.5 µM (inactive) | 2.19 µM (inactive) | 13.9 µM (inactive) | 15.9 µM (inactive) | 2.44 µM (inactive) | 4.66 µM (inactive) | 8.39 µM (inactive) |
| NNC(=O)/C(=C/c1cccc([N+](=O)[O-])c1)NC(=O)c1ccccc1 | > 100 µM (inactive) | > 100 µM (inactive) | > 100 µM (inactive) | > 100 µM (inactive) | > 100 µM (inactive) | > 100 µM (inactive) | > 100 µM (inactive) | > 100 µM (inactive) | > 100 µM (inactive) | > 100 µM (inactive) | > 100 µM (inactive) | > 100 µM (inactive) | > 100 µM (inactive) | > 100 µM (inactive) | > 100 µM (inactive) | > 100 µM (inactive) | – | – | – | – |
| COC1C=CC(C(=O)[N+]2=Cc3[nH]c4ccccc4c3CC2)O1 (centres undefined) | > 100 µM (inactive) | > 100 µM (inactive) | 55.6 µM (inactive) | 32.3 µM (inactive) | > 100 µM (inactive) | > 100 µM (inactive) | > 100 µM (inactive) | > 100 µM (inactive) | 80.9 µM (inactive) | > 100 µM (inactive) | 83.4 µM (inactive) | > 100 µM (inactive) | > 100 µM (inactive) | 52.5 µM (inactive) | 30.5 µM (inactive) | > 100 µM (inactive) | – | – | – | – |
| N/C(=N\O)N/N=C/c1cccc(F)c1 | 30.4 µM (inactive) | 64 µM (inactive) | 84.9 µM (inactive) | 25.5 µM (inactive) | 25.1 µM (inactive) | 34.1 µM (inactive) | 26.8 µM (inactive) | 37.3 µM (inactive) | 21 µM (inactive) | 39 µM (inactive) | 75.2 µM (inactive) | 21.6 µM (inactive) | 37.8 µM (inactive) | 55.7 µM (inactive) | 21.9 µM (inactive) | 52.4 µM (inactive) | – | – | – | – |
| c1ccc(SCCP(CCP(c2ccccc2)c2ccccc2)c2ccccc2)cc1 (centres undefined) | 4.57 µM (inactive) | 22 µM (inactive) | 12.2 µM (inactive) | 2.09 µM (inactive) | 2.16 µM (inactive) | 2.1 µM (inactive) | – | 11.5 µM (inactive) | 23.1 µM (inactive) | 2.95 µM (inactive) | 3.88 µM (inactive) | > 25.5 µM (inactive) | 5.46 µM (inactive) | 6.61 µM (inactive) | – | 11.7 µM (inactive) | 4.61 µM (inactive) | 6.34 µM (inactive) | 6.58 µM (inactive) | 34.4 µM (inactive) |
| CN(C)CCC(=O)c1ccccc1 | 20 µM (inactive) | 19.8 µM (inactive) | > 58.1 µM (inactive) | 11.3 µM (inactive) | > 56.4 µM (inactive) | 32.5 µM (inactive) | 36.4 µM (inactive) | 16.1 µM (inactive) | > 58.7 µM (inactive) | > 61.8 µM (inactive) | 42.7 µM (inactive) | > 58.5 µM (inactive) | > 100 µM (inactive) | > 57.1 µM (inactive) | 35.1 µM (inactive) | 37.8 µM (inactive) | – | – | – | – |
| CC(=O)OCC(=O)[C@@]12OC(C)(C)O[C@@H]1C[C@H]1[C@@H]3CC(C=O)=C4C=C(OCCCl)CC[C@]4(C)[C@@]3(F)[C@@H](O)C[C@@]12C [FORMOCORTAL] | 16.1 µM (inactive) | 23 µM (inactive) | 15.3 µM (inactive) | 15.9 µM (inactive) | 18.5 µM (inactive) | 16.7 µM (inactive) | 25.8 µM (inactive) | 23.6 µM (inactive) | 17.3 µM (inactive) | 15.8 µM (inactive) | 25.9 µM (inactive) | 34.9 µM (inactive) | 5.42 µM (inactive) | 1.39 µM (inactive) | 13 µM (inactive) | 23.4 µM (inactive) | – | – | – | – |
